Results: ChEMBL document CHEMBL4507261, “Data for DCP probe A-192621” (2021)

Columns and labels:
[1] = target: Cytoplasmic tyrosine-protein kinase BMX (Homo sapiens) (UniProt P51813); conditions: Compound concentration 1000.0 nM
[2] = target: Serine/threonine-protein kinase WNK2 (Homo sapiens) (UniProt Q9Y3S1); conditions: Compound concentration 1000.0 nM
[3] = target: Ephrin type-B receptor 1 (Homo sapiens) (UniProt P54762); conditions: Compound concentration 1000.0 nM
[4] = target: Cyclin-dependent kinase 4 (Homo sapiens) (UniProt P11802); conditions: Compound concentration 1000.0 nM
[5] = target: TGF-beta receptor type-2 (Homo sapiens) (UniProt P37173); conditions: Compound concentration 1000.0 nM
[6] = tested on: Mast/stem cell growth factor receptor Kit (Homo sapiens), P10721 [D816H]; conditions: Compound concentration 1000.0 nM
[7] = target: SNF-related serine/threonine-protein kinase (Homo sapiens) (UniProt Q9NRH2); conditions: Compound concentration 1000.0 nM
[8] = target: Mitogen-activated protein kinase kinase kinase 4 (Homo sapiens) (UniProt Q9Y6R4); conditions: Compound concentration 1000.0 nM
[9] = tested on: Tyrosine-protein kinase ABL1 (Homo sapiens), P00519 [T315I]; conditions: Compound concentration 1000.0 nM
[10] = target: Casein kinase I isoform gamma-2 (Homo sapiens) (UniProt P78368); conditions: Compound concentration 1000.0 nM
[11] = target: Cyclin-dependent kinase 11A (Homo sapiens) (UniProt Q9UQ88); conditions: Compound concentration 1000.0 nM
[12] = target: Phosphatidylinositol 4-phosphate 5-kinase type-1 alpha (Homo sapiens) (UniProt Q99755); conditions: Compound concentration 1000.0 nM
[13] = target: Rhodopsin kinase GRK1 (Homo sapiens) (UniProt Q15835); conditions: Compound concentration 1000.0 nM
[14] = target: T1, Alpha-2A adrenergic receptor (Homo sapiens) (UniProt P08913); assay: Alpha2A (h) Eurofins-Cerep binding assay; conditions: filed as antagonist, Compound concentration 10.0 uM
T1 sequence (whole entry): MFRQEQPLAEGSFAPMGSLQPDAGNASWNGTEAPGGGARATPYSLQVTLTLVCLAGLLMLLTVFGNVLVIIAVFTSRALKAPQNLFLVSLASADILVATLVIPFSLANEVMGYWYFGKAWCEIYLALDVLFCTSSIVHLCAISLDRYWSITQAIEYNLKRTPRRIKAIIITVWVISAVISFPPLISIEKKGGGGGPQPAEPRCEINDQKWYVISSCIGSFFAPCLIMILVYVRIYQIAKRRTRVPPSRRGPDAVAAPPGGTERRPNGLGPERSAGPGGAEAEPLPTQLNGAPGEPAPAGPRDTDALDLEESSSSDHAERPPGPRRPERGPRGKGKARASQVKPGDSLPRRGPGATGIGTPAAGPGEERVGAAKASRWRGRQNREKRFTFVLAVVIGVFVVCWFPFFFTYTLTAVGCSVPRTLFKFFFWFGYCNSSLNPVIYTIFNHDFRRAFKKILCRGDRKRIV

[15] = tested on: Proto-oncogene tyrosine-protein kinase receptor Ret (Homo sapiens), P07949 [V804M]; conditions: Compound concentration 1000.0 nM
[16] = tested on: Phosphatidylinositol 4,5-bisphosphate 3-kinase catalytic subunit alpha isoform (Homo sapiens), P42336 [H1047L]; conditions: Compound concentration 1000.0 nM
[17] = target: Vascular endothelial growth factor receptor 2 (Homo sapiens) (UniProt P35968); conditions: Compound concentration 1000.0 nM
[18] = target: Proto-oncogene tyrosine-protein kinase Src (Homo sapiens) (UniProt P12931); conditions: Compound concentration 1000.0 nM
[19] = tested on: Phosphatidylinositol 4,5-bisphosphate 3-kinase catalytic subunit alpha isoform (Homo sapiens), P42336 [H1047Y]; conditions: Compound concentration 1000.0 nM
[20] = target: Megakaryocyte-associated tyrosine-protein kinase (Homo sapiens) (UniProt P42679); conditions: Compound concentration 1000.0 nM
[21] = target: AP2-associated protein kinase 1 (Homo sapiens) (UniProt Q2M2I8); conditions: Compound concentration 1000.0 nM
[22] = target: Serine/threonine-protein kinase DCLK1 (Homo sapiens) (UniProt O15075); conditions: Compound concentration 1000.0 nM
[23] = target: Tyrosine-protein kinase Lyn (Homo sapiens) (UniProt P07948); conditions: Compound concentration 1000.0 nM
[24] = target: Protein kinase C epsilon type (Homo sapiens) (UniProt Q02156); conditions: Compound concentration 1000.0 nM
[25] = target: Rhodopsin kinase GRK7 (Homo sapiens) (UniProt Q8WTQ7); conditions: Compound concentration 1000.0 nM
[26] = target: Rho-associated protein kinase 2 (Homo sapiens) (UniProt O75116); conditions: Compound concentration 1000.0 nM
[27] = target: Tyrosine-protein kinase ITK/TSK (Homo sapiens) (UniProt Q08881); conditions: Compound concentration 1000.0 nM
[28] = target: Interleukin-1 receptor-associated kinase 4 (Homo sapiens) (UniProt Q9NWZ3); conditions: Compound concentration 1000.0 nM
[29] = target: Mitogen-activated protein kinase kinase kinase kinase 4 (Homo sapiens) (UniProt O95819); conditions: Compound concentration 1000.0 nM
[30] = target: Dual specificity protein kinase CLK4 (Homo sapiens) (UniProt Q9HAZ1); conditions: Compound concentration 1000.0 nM
[31] = target: Serine/threonine-protein kinase pim-1 (Homo sapiens) (UniProt P11309); conditions: Compound concentration 1000.0 nM
[32] = target: Protein kinase C theta type (Homo sapiens) (UniProt Q04759); conditions: Compound concentration 1000.0 nM
[33] = target: Tyrosine-protein kinase Tec (Homo sapiens) (UniProt P42680); conditions: Compound concentration 1000.0 nM
[34] = target: Ephrin type-A receptor 2 (Homo sapiens) (UniProt P29317); conditions: Compound concentration 1000.0 nM
[35] = target: Wee1-like protein kinase 2 (Homo sapiens) (UniProt P0C1S8); conditions: Compound concentration 1000.0 nM
[36] = target: Ephrin type-B receptor 2 (Homo sapiens) (UniProt P29323); conditions: Compound concentration 1000.0 nM
[37] = target: Cyclin-dependent kinase-like 3 (Homo sapiens) (UniProt Q8IVW4); conditions: Compound concentration 1000.0 nM
[38] = target: Myosin light chain kinase family member 4 (Homo sapiens) (UniProt Q86YV6); conditions: Compound concentration 1000.0 nM
[39] = tested on: Tyrosine-protein kinase ABL1 (Homo sapiens), P00519 [H396P]; conditions: Compound concentration 1000.0 nM

Chain of Megakaryocyte-associated tyrosine-protein kinase (Homo sapiens) (P42679 whole entry): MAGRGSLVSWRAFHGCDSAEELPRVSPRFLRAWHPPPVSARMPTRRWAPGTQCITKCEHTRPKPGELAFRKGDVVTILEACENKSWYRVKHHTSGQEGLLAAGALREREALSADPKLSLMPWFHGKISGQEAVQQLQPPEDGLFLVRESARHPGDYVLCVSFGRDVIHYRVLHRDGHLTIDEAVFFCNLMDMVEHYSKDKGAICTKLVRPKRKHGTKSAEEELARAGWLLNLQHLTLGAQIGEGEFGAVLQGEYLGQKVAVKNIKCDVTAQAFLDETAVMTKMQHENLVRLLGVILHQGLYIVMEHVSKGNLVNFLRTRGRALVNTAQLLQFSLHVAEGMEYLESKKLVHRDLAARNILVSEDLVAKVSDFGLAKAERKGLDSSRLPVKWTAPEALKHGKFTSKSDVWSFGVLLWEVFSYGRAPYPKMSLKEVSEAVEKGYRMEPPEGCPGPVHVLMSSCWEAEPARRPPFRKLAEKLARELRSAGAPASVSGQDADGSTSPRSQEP
Chain of Wee1-like protein kinase 2 (Homo sapiens) (P0C1S8 whole entry, looked up): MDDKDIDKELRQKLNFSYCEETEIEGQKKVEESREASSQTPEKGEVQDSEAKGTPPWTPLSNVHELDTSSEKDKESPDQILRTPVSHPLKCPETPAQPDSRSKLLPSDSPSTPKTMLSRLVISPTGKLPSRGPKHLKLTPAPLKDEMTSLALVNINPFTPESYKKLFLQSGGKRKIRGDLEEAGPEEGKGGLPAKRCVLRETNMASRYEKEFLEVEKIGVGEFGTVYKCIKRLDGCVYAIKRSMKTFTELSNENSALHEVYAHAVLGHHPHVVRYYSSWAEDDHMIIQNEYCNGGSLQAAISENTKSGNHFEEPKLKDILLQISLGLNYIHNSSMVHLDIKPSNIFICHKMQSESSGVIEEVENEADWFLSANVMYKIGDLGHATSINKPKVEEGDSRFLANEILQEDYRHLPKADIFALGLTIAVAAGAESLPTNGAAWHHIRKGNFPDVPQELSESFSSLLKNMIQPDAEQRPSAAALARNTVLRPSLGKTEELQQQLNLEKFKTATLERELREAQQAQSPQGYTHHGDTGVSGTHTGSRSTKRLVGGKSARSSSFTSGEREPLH
Chain of Rho-associated protein kinase 2 (Homo sapiens) (O75116 whole entry, looked up): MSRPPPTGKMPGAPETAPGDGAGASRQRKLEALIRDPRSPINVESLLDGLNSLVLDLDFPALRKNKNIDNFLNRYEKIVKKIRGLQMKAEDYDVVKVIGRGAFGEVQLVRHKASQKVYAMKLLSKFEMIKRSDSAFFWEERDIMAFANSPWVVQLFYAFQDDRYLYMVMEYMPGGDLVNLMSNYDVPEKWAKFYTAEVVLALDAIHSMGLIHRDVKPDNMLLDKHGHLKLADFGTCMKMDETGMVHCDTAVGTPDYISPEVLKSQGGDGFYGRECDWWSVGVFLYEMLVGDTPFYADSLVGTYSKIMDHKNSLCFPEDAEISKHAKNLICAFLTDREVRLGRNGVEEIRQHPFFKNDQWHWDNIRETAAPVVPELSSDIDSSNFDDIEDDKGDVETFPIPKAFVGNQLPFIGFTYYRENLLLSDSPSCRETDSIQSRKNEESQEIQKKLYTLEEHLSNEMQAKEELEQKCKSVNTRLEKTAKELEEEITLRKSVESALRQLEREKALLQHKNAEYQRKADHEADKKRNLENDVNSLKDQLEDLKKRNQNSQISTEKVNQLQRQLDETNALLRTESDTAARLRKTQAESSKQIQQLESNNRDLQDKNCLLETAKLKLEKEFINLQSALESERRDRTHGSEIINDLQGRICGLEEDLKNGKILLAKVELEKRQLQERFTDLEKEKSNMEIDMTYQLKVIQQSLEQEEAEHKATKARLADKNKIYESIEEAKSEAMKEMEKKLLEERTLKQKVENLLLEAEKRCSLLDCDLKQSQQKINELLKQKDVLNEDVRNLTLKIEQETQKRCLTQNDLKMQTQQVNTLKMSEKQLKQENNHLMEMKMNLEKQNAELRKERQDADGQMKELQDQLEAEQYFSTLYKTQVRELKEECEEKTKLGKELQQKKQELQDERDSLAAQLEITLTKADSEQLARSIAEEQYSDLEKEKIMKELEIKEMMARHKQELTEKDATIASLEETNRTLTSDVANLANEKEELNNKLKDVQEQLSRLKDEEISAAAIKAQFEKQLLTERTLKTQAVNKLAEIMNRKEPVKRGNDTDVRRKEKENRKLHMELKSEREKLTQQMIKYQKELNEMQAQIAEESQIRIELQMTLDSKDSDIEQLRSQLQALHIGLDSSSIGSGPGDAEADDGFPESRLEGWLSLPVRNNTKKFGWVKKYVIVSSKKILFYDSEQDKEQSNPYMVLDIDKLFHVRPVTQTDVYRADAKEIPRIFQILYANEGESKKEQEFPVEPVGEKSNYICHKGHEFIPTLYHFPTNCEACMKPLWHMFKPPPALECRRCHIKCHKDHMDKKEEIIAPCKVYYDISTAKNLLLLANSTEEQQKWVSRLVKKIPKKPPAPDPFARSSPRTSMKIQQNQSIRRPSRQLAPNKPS
Chain of Serine/threonine-protein kinase pim-1 (Homo sapiens) (P11309 whole entry, looked up): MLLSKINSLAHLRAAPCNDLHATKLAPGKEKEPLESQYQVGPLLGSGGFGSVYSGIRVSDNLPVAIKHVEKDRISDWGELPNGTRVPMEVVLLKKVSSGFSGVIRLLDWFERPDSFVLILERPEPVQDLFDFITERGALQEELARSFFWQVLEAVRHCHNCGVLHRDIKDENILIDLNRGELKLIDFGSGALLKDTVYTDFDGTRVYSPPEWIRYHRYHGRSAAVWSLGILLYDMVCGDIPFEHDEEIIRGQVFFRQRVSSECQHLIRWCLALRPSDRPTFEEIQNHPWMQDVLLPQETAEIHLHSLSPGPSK
Chain of SNF-related serine/threonine-protein kinase (Homo sapiens) (Q9NRH2 whole entry): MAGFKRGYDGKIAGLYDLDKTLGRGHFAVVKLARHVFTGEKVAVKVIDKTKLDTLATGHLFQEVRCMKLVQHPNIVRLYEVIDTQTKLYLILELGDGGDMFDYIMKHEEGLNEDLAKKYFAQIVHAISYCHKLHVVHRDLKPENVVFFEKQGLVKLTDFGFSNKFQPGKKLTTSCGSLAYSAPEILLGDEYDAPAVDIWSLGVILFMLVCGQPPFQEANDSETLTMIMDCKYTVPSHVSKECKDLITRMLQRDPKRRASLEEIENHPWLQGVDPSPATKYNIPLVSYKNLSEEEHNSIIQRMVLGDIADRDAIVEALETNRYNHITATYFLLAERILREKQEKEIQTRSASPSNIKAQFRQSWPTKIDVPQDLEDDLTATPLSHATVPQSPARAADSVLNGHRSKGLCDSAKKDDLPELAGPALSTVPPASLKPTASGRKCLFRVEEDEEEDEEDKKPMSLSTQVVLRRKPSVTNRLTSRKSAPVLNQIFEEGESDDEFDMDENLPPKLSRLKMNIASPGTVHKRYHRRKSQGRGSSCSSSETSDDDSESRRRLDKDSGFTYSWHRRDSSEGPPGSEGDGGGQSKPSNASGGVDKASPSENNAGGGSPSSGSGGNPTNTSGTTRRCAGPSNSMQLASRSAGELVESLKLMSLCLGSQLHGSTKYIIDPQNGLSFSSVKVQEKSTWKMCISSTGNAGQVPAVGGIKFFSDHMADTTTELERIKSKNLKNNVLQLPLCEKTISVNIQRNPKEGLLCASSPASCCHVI
Chain of Tyrosine-protein kinase Tec (Homo sapiens) (P42680 whole entry): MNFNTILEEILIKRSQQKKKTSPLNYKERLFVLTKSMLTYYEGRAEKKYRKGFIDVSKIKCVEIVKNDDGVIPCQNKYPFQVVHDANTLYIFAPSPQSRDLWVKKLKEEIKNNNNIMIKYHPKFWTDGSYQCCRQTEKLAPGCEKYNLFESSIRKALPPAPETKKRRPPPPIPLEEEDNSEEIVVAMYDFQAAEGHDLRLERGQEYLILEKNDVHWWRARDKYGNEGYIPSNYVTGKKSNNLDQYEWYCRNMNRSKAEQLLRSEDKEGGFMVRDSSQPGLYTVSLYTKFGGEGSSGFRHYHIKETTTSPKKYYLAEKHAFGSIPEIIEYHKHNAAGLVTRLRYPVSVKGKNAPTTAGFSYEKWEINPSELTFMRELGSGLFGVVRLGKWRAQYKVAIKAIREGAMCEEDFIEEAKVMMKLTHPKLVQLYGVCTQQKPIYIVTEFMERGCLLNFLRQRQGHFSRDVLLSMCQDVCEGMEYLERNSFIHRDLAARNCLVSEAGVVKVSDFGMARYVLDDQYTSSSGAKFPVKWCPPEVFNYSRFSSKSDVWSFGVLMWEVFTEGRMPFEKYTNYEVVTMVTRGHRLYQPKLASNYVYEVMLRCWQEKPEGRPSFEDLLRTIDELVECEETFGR
Chain of Protein kinase C epsilon type (Homo sapiens) (Q02156 whole entry): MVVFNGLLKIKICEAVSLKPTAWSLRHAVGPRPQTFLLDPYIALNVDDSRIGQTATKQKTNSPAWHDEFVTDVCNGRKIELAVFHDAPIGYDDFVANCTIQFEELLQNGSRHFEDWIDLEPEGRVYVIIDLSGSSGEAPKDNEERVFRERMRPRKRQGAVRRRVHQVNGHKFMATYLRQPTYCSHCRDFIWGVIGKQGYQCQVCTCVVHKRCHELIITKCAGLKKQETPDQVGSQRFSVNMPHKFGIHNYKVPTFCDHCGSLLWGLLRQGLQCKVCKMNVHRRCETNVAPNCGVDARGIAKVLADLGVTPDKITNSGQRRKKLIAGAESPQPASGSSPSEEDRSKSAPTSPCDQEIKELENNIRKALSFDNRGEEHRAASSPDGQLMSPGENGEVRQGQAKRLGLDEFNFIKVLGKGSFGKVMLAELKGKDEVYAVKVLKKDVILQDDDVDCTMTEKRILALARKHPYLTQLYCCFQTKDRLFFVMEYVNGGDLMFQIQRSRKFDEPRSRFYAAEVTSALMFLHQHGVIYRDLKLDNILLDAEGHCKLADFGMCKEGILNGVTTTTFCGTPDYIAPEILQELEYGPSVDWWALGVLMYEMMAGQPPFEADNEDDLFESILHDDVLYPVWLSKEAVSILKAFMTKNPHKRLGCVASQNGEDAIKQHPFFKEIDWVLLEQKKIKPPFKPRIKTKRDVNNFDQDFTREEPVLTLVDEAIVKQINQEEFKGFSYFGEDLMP

SMILES: CCCOc1ccc([C@H]2[C@H](C(=O)O)[C@@H](c3ccc4c(c3)OCO4)CN2CC(=O)Nc2c(CC)cccc2CC)cc1 [A-192621]
- residual activity [1]: 100%
- residual activity [2]: 58%
- residual activity [3]: 100%
- residual activity [4]: 89%
- residual activity [5]: 95%
- residual activity [6]: 72%
- residual activity [7]: 84%
- residual activity [8]: 88%
- residual activity [9]: 77%
- residual activity [10]: 100%
- residual activity [11]: 98%
- residual activity [12]: 82%
- residual activity [13]: 68%
- % Inhibition of Control Specific Binding [14]: -2.4%
- residual activity [15]: 100%
- residual activity [16]: 85%
- residual activity [17]: 77%
- residual activity [18]: 99%
- residual activity [19]: 78%
- residual activity [20]: 83%
- residual activity [21]: 95%
- residual activity [22]: 75%
- residual activity [23]: 90%
- residual activity [24]: 74%
- residual activity [25]: 100%
- residual activity [26]: 69%
- residual activity [27]: 96%
- residual activity [28]: 76%
- residual activity [29]: 90%
- residual activity [30]: 100%
- residual activity [31]: 85%
- residual activity [32]: 81%
- residual activity [33]: 100%
- residual activity [34]: 100%
- residual activity [35]: 85%
- residual activity [36]: 100%
- residual activity [37]: 92%
- residual activity [38]: 75%
- residual activity [39]: 81%

SMILES: CCCOc1ccc([C@@H]2[C@@H](C(=O)O)[C@H](c3ccc4c(c3)OCO4)CN2CC(=O)Nc2c(CC)cccc2CC)cc1 [A-1806262]
- residual activity [1]: 100%
- residual activity [2]: 88%
- residual activity [3]: 91%
- residual activity [4]: 96%
- residual activity [5]: 96%
- residual activity [6]: 94%
- residual activity [7]: 87%
- residual activity [8]: 99%
- residual activity [9]: 82%
- residual activity [10]: 96%
- residual activity [11]: 100%
- residual activity [12]: 90%
- residual activity [13]: 100%
- % Inhibition of Control Specific Binding (Mean n=2) [14]: -7.1%
- residual activity [15]: 94%
- residual activity [16]: 83%
- residual activity [17]: 72%
- residual activity [18]: 100%
- residual activity [19]: 100%
- residual activity [20]: 90%
- residual activity [21]: 90%
- residual activity [22]: 80%
- residual activity [23]: 96%
- residual activity [24]: 97%
- residual activity [25]: 99%
- residual activity [26]: 84%
- residual activity [27]: 100%
- residual activity [28]: 100%
- residual activity [29]: 97%
- residual activity [30]: 89%
- residual activity [31]: 89%
- residual activity [32]: 100%
- residual activity [33]: 96%
- residual activity [34]: 100%
- residual activity [35]: 87%
- residual activity [36]: 100%
- residual activity [37]: 95%
- residual activity [38]: 100%
- residual activity [39]: 90%
